The assay deals with hypoxia-induced VEGF production in HeLa cells. Briefly: cells. Conditions: Homo sapiens, HeLa. Format: cell-based, human.
By EC50 is commonly meant the concentration at which the effect is half-maximal. A high value points to lower potency in that assay. `CC(C)(C)OC(=O)N1CCc2c([nH]c3ccc(Cl)cc23)C1c1ccc(OCCCn2ccnn2)cc1` (stereo not drawn) [Compound 1185] registered a 50% effective concentration (EC50) of under 8 nM. In turn, `CC(C)(C)OC(=O)N1CCc2c([nH]c3ccc(Cl)cc23)C1c1ccc(OCCCn2nccn2)cc1` (stereo not drawn) [Compound 1186] displayed an EC50 of under 8 nM. The same measure for `CN1CCC(OCCCOc2ccc(C3c4[nH]c5ccc(Cl)cc5c4CCN3C(=O)Oc3ccc(Cl)cc3)cc2)CC1` (stereo not drawn) [Compound 1554]: over 1000 nM; for `CCOC(=O)N1CCc2c([nH]c3ccc(Cl)cc23)C1c1ccc(OCC(=O)N2CCN(CCOC)CC2)cc1` (stereo not drawn) [Compound 1003]: 8 to 40 nM; for `COc1ccc(C(=O)c2sc(N3CCc4c([nH]c5ccc(Cl)cc45)C3c3ccc(OC)cc3)nc2-c2ccccc2)cc1` (stereo not drawn) [Compound 1601]: under 8 nM. With `CC#CCOC(=O)N1CCc2c([nH]c3ccc(Cl)cc23)C1c1ccc(OC2CCN(S(=O)(=O)CC[Si](C)(C)C)CC2)cc1` (stereo not drawn) [Compound 1579] the figure was under 8 nM; with `COc1ccc(OC(=O)N2CCc3c([nH]c4c(C)cccc34)C2c2ccc(OC)cc2)cc1` (stereo not drawn) [Compound 1427], over 1000 nM; with `O=C(Oc1ccc(Cl)cc1)N1CCc2c([nH]c3ccc(Cl)cc23)[C@@H]1c1ccc(OCCCNC(CO)(CO)CO)cc1` [Compound 1255], 40 to 200 nM. With `CCOC(=O)N1CCc2c([nH]c3ccc(Cl)cc23)C1c1ccc(OCC(O)CNC(=O)CC)cc1` (stereo not drawn) [Compound 1464] the figure was 8 to 40 nM; with `COc1ccc(C2c3[nH]c4ccc(C#N)cc4c3CCN2C(=O)Oc2ccc(F)cc2)cc1` (stereo not drawn) [Compound 1514], 40 to 200 nM.

For the molecule `COc1ccc(C2c3[nH]c4ccc(Cl)cc4c3CCN2C(N)=S)cc1` (stereo not drawn) [Compound 1247], the concentration giving a half-maximal response (EC50) lay within 200 to 1000 nM. The same measure for `CC#CCOC(=O)N1CCc2c([nH]c3ccc(Cl)cc23)C1c1ccc(OC2CCOCC2)cc1` (stereo not drawn) [Compound 1576]: under 8 nM; for `COc1ccc(C2c3[nH]c4c(C)cccc4c3CCN2C(=O)Oc2ccc(Cl)cc2)cc1` (stereo not drawn) [Compound 1429]: over 1000 nM. With `CN1CCC(COc2ccc(C3c4[nH]c5ccc(Cl)cc5c4CCN3C(=O)Oc3ccc(Cl)cc3)cc2)CC1` (stereo not drawn) [Compound 1099], the half-maximal effective concentration (EC50) is 8 to 40 nM.

As for `COc1ccc(OC(=O)N2CCc3c([nH]c4cc(Br)ccc34)C2c2ccc(OC(F)F)cc2)cc1` (stereo not drawn) [Compound 1447], the EC50 lay in the range of 40 to 200 nM. The same measure for `C=CCOc1ccc([C@H]2c3[nH]c4ccc(Cl)cc4c3CCN2C(=O)OCC)cc1` [Compound 1217]: under 8 nM; for `COCCOC(=O)N1CCc2c([nH]c3ccc(Cl)cc23)C1c1ccc(OCCn2cc(C#N)c(N)n2)cc1` (stereo not drawn) [Compound 1438]: 40 to 200 nM.

The molecule `COc1ccc(C2c3[nH]c4ccc(Cl)cc4c3CCN2C(=O)Oc2ccc(Cl)cc2)cn1` (stereo not drawn) [Compound 1479] displayed an EC50 of 8 to 40 nM.

`CCOC(=O)N1CCc2c([nH]c3ccc(Cl)cc23)C1c1ccc(OCC(O)CNC(=O)C(C)C)cc1` (stereo not drawn) [Compound 1465] returned an EC50 of 8 to 40 nM. The same measure for `COc1ccc(-c2csc(N3CCc4c([nH]c5ccc(Cl)cc45)C3c3ccc(OC)cc3)n2)cc1` (stereo not drawn) [Compound 1591]: under 8 nM.

`CCOC(=O)N1CCc2c([nH]c3ccc(Cl)cc23)C1c1cnc(OC)nc1` (stereo not drawn) [Compound 1691] came in with an EC50 of 40 to 200 nM. The same measure for `COc1ccc(C2c3[nH]c4ccc(Cl)cc4c3CCN2C(=O)C(=O)Nc2ccc(F)cc2)cc1` (stereo not drawn) [Compound 1713]: 40 to 200 nM; for `CCOC(=O)N1CCc2c([nH]c3ccc(Cl)cc23)C1c1ccc(OCC(O)CNS(=O)(=O)C(C)C)cc1` (stereo not drawn) [Compound 1474]: 8 to 40 nM. `CC#CCOC(=O)N1CCc2c([nH]c3ccc(Cl)cc23)C1c1ccc(OCC[C@H](O)CO)cc1` (stereo partly drawn) [Compound 1176] yielded a half-maximal effective concentration (EC50) of under 8 nM. Molecule `CCOC(=O)N1CCc2c([nH]c3ccc(Cl)cc23)C1c1ccc(OCC(=O)NCCO)cc1` (stereo not drawn) [Compound 1013] returned an EC50 of 8 to 40 nM. With `CCOC(=O)N1CCc2c([nH]c3ccc(Cl)cc23)C1c1ccc(OCC(O)Cn2nccn2)cc1` (stereo not drawn) [Compound 1073] the figure was under 8 nM; with `Cc1ccc(C2c3[nH]c4cc(F)ccc4c3CCN2C(=O)Oc2ccc(Cl)cc2)cc1` (stereo not drawn) [Compound 1457], 200 to 1000 nM. The same measure for `CCC(CO)(CO)COc1ccc([C@H]2c3[nH]c4ccc(Cl)cc4c3CCN2C(=O)OCC2CCCC2)cc1` [Compound 1687]: under 8 nM; for `O=C(Oc1ccc(Cl)cc1)N1CCc2c([nH]c3ccc(Cl)cc23)[C@@H]1c1ccc(OC[C@H](O)CN2CCOCC2)cc1` [Compound 1070]: under 8 nM.

The molecule `O=C(Oc1ccc(Cl)cc1)N1CCc2c([nH]c3ccc(Cl)cc23)C1c1ccc(OC(CO)CO)cc1` (stereo not drawn) [Compound 1231] showed an EC50 of 8 to 40 nM. With `O=C(OCC1CC1)N1CCc2c([nH]c3ccc(Cl)cc23)[C@@H]1c1ccc(OC[C@@H](O)CO)cc1` [Compound 1380] the figure was under 8 nM. With `C/C=C/C(=O)N1CCc2c([nH]c3ccc(Cl)cc23)C1c1ccc(OCCCn2cncn2)cc1` (stereo not drawn) [Compound 1510] the figure was 8 to 40 nM; with `C/C=C/C(=O)N1CCc2c([nH]c3ccc(Cl)cc23)C1c1ccc(OCCCN2CCOCC2)cc1` (stereo not drawn) [Compound 1509], 40 to 200 nM; with `CCOC(=O)N1CCc2c([nH]c3ccc(Cl)cc23)[C@@H]1c1ccc(Oc2ccc3ccccc3n2)cc1` [Compound 1575], under 8 nM.

Molecule `CCOC(=O)c1csc(N2CCc3c([nH]c4ccc(Cl)cc34)C2c2ccc(OC)cc2)n1` (stereo not drawn) [Compound 1585] returned a 50% effective concentration (EC50) of under 8 nM. The same measure for `COc1ccc(C2c3[nH]c4ccc(S(C)(=O)=O)cc4c3CCN2C(=S)Oc2ccc(F)cc2)cc1` (stereo not drawn) [Compound 1500]: over 1000 nM.

In turn, `COc1ccc(C2c3[nH]c4ccc(Cl)cc4c3CCN2C(=O)C(=O)OCC2CC2)cc1` (stereo not drawn) [Compound 1717] yielded a concentration for a half-maximal effect (EC50) of 8 to 40 nM.

With `COc1ccc(C2c3[nH]c4ccc(Cl)cc4c3CCN2C(=O)C(=O)Nc2ccc(Cl)cc2)cc1` (stereo not drawn) [Compound 1711], the EC50 was 8 to 40 nM.

For `COc1ccc(C2c3[nH]c4cccc(Br)c4c3CCN2C(=O)Oc2ccc(Br)cc2)cc1` (stereo not drawn) [Compound 1526], the EC50 fell in the range of 40 to 200 nM.

For `O=C(OCCCCl)N1CCc2c([nH]c3ccc(Cl)cc23)C1c1ccc(OCC2OCCO2)cc1` (stereo not drawn) [Compound 1041], the concentration for a half-maximal effect (EC50) is 8 to 40 nM. With `O=C(OCc1ccccc1)N1CCc2c([nH]c3ccc(Cl)cc23)C1c1ccc(OCCCn2ccnn2)cc1` (stereo not drawn) [Compound 1107] the figure was under 8 nM; with `COc1ccc(C2c3[nH]c4ccc(Cl)cc4c3CCN2c2nc(C(F)(F)F)cs2)cc1` (stereo not drawn) [Compound 1589], under 8 nM.

In turn, `CCOC(=O)N1CCc2c([nH]c3ccc(Cl)cc23)[C@@H]1c1ccc(OCCC(O)CNC(=O)C(C)C)cc1` (stereo partly drawn) [Compound 1616] displayed an EC50 of 8 to 40 nM. The same measure for `COc1ccc([C@H]2c3[nH]c4ccc(Cl)cc4c3CCN2C(=O)OCC2CCCC2)cc1` [Compound 1662]: 8 to 40 nM.

With `COCCN(C)CCCOc1cccc(C2c3[nH]c4ccc(Cl)cc4c3CCN2C(=O)Oc2ccc(F)cc2)c1` (stereo not drawn) [Compound 1121], the EC50 was over 1000 nM. With `O=C(Oc1ccc(Cl)cc1)N1CCc2c([nH]c3ccc(Cl)cc23)[C@@H]1c1ccc(Oc2ncc(CN3CCOCC3)s2)cc1` [Compound 1660] the figure was under 8 nM; with `O=C(OCCF)N1CCc2c([nH]c3ccc(Cl)cc23)C1c1ccc(OCC2OCCO2)cc1` (stereo not drawn) [Compound 1039], under 8 nM; with `COc1ccc(OC(=O)N2CCc3c([nH]c4ccc(Cl)cc34)C2c2ccc(OC)nc2)cc1` (stereo not drawn) [Compound 1478], 40 to 200 nM. With `Clc1ccc2[nH]c3c(c2c1)CCN(c1ncccn1)[C@H]3c1ccc(OC[C@@H]2CO2)cc1` [Compound 1245] the figure was 8 to 40 nM. With `CCOC(=O)N1CCc2c([nH]c3ccc(Cl)cc23)[C@@H]1c1ccc(OC[C@@H]2COC(C)(C)O2)cc1` [Compound 1261] the figure was under 8 nM; with `CCOC(=O)N1CCc2c([nH]c3ccc(Cl)cc23)C1c1cccc(OCCCN(C)CCOC)c1` (stereo not drawn) [Compound 1120], 200 to 1000 nM; with `[H]/N=c1\scnn1CCOc1ccc(C2c3[nH]c4ccc(Cl)cc4c3CCN2C(=O)OCCOC)cc1` (stereo not drawn) [Compound 1412], 8 to 40 nM.

On to `COc1ccc(C2c3[nH]c4ccc(Cl)cc4c3CCN2c2nc(C)cs2)cc1` (stereo not drawn) [Compound 1584], for which the EC50 is under 8 nM. With `CCOC(=O)N1CCc2c([nH]c3ccc(Cl)cc23)[C@@H]1c1ccc(OCCC(O)CNS(C)(=O)=O)cc1` (stereo partly drawn) [Compound 1622] the figure was under 8 nM; with `CC#CCOC(=O)N1CCc2c([nH]c3ccc(Cl)cc23)[C@@H]1c1ccc(OC2CCN(CCN3CCOCC3)CC2)cc1` [Compound 1679], 8 to 40 nM; with `CC(C)C(=O)N1CCc2c([nH]c3ccc(Cl)cc23)C1c1ccc(OCCCN2CCOCC2)cc1` (stereo not drawn) [Compound 1193], 40 to 200 nM.

In turn, `O=C(Oc1ccc(Cl)cc1)N1CCc2c([nH]c3cc(F)ccc23)C1c1ccc(OC(F)F)cc1` (stereo not drawn) [Compound 1463] had an EC50 of 40 to 200 nM. As to `C=CCOc1ccc([C@H]2c3[nH]c4ccc(Cl)cc4c3CCN2P(=O)(OCC)OCC)cc1` [Compound 1608], the 50% effective concentration (EC50) was over 1000 nM. With `CCOC(=O)N1CCc2c([nH]c3ccc(Cl)cc23)C1c1ccc(OCC(=O)N2CCN(CCO)CC2)cc1` (stereo not drawn) [Compound 1014] the figure was 40 to 200 nM; with `C=CCOC(=O)N1CCc2c([nH]c3ccc(Cl)cc23)C1c1ccc(OCCCn2ccnn2)cc1` (stereo not drawn) [Compound 1080], under 8 nM; with `CS(=O)(=O)CCCOc1ccc([C@H]2c3[nH]c4ccc(Cl)cc4c3CCN2C(=O)Oc2ccc(Cl)cc2)cc1` [Compound 1648], under 8 nM. The molecule `CCN(CC)C[C@@H](O)COc1ccc([C@H]2c3[nH]c4ccc(Cl)cc4c3CCN2c2ncccn2)cc1` [Compound 1311] showed an EC50 of 40 to 200 nM.

`CC1(COc2ccc([C@H]3c4[nH]c5ccc(Cl)cc5c4CCN3C(=O)OC3CCCC3)cc2)COC(C)(C)OC1` [Compound 1319] returned a half-maximal effective concentration (EC50) of under 8 nM. The same measure for `CCOC(=O)N1CCc2c([nH]c3ccc(Cl)cc23)[C@@H]1c1ccc(OCC2(C)COC(C)(C)OC2)cc1` [Compound 1284]: under 8 nM. The same measure for `CCOC(=O)N1CCc2c([nH]c3ccc(C#N)cc23)C1c1ccc(OC)cc1` (stereo not drawn) [Compound 1512]: 200 to 1000 nM; for `COCCOC(=O)N1CCc2c([nH]c3ccc(Cl)cc23)C1c1ccc(OCCCn2ccnn2)cc1` (stereo not drawn) [Compound 1083]: 8 to 40 nM.
